This is an account of results in patent US8236492B2 (priority 2003, dated 2012).

Structures are written as SMILES.

The experiment has as its system ileal fluid dependant organism (IFDO). Format: cell-based.
As to `Oc1ccc(Cl)cc1Cc1cc(Cl)ccc1O` [2,2-Methylenebis(4-chlorophenol)], the “Log10 Reduction of Colonies” value came out at 3.8.
With `Cc1cccc(O)c1C` [2,3-Dimethylphenol], the “Log10 Reduction of Colonies” value was found to be 4.1.
The same measure, in the same setting: with `Oc1cc(Cl)c(Cl)cc1Cl` [2,4,5-Trichlorophenol] the figure was 4.9; with `Oc1c(Cl)cc(Cl)c(Cl)c1Cc1c(O)c(Cl)cc(Cl)c1Cl` [Hexachlorophene], 3.6.
Turning to `CCC(C)(C)c1ccc(O)cc1` [PTAP, p-tertiary-amylphenol], the “efficacy of LpH phenols tested at equivocal concentrations” value (“efficacy of LpH phenols tested” for short) is listed as “less effective”.
For the molecule `Oc1ccccc1` [Phenol], the “Log10 Reduction of Colonies” value was 3.6.
Still for that read-out and setting: as for `Cc1ccc(C(C)C)c(O)c1` [Thymol], the figure is 3.2.
With `Oc1cc(Cl)ccc1Oc1ccc(Cl)cc1Cl` [Triclosan], the “Log10 Reduction of Colonies” value is 2.7.
As for `Oc1ccc(Cl)cc1Cc1ccccc1` [o-Benzyl-p-chlorophenol], the “Log10 Reduction of Colonies” value is recorded as 4.7 and the “efficacy of LpH phenols tested” value was “optimal”.
As for `Oc1ccccc1-c1ccccc1` [o-Phenylphenol], the “Log10 Reduction of Colonies” value is 4.8 and the “efficacy of LpH phenols tested” value was “optimal”.
With `Cc1cc(O)ccc1Cl` [p-Chloro-m-cresol], the “Log10 Reduction of Colonies” value worked out at 4.3.
On the same count and under the same terms, with `Cc1ccc(O)cc1` [p-Cresol] the figure was 3.7.
